This is an account of results in patent US20110053916A1 (Vertex Pharmaceuticals Incorporated, priority 2009, published 2011).

For assay [1], the target named is T1, PknB (Mycobacterium tuberculosis, UniProt P9WI81).
T1 construct: made in house
The experiment in a line: biochemical. Also on record: species or system M. tuberculosis. To be noted: 3 nM PknB, 6 uM GarA, 3 μM ATP, 30 min, competitive tight-binding fit, several symbols in a cell = repeat determinations; for Ki: read-out: Ki Values.

The test system of assay [2] is Mycobacterium tuberculosis H37Ra. The experiment in a line: Mycobacterium tuberculosis growth inhibition assay (microtiter dilution, resazurin reduction). The format is cell-based. The note with it: 7H9 broth, 9 days + 24 h resazurin, lowest concentration inhibiting resazurin reduction by >70%, several symbols in a cell = repeat determinations. The procedure, abridged: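 Resazurin-based microtiter dilution MIC: compounds in 7- or 11-step two-fold series with ~1×10^6 cells/mL H37Ra in 7H9/10% ADC, 9 days at 37 °C, then 24 h with dye. MIC is the lowest concentration giving >70% inhibition of resazurin reduction relative to DMSO controls, by 492/595 nm fluorescence.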
Background: Alamar Blue is a resazurin reagent that responds to reducing activity.

T1 sequence (P9WI81 whole entry): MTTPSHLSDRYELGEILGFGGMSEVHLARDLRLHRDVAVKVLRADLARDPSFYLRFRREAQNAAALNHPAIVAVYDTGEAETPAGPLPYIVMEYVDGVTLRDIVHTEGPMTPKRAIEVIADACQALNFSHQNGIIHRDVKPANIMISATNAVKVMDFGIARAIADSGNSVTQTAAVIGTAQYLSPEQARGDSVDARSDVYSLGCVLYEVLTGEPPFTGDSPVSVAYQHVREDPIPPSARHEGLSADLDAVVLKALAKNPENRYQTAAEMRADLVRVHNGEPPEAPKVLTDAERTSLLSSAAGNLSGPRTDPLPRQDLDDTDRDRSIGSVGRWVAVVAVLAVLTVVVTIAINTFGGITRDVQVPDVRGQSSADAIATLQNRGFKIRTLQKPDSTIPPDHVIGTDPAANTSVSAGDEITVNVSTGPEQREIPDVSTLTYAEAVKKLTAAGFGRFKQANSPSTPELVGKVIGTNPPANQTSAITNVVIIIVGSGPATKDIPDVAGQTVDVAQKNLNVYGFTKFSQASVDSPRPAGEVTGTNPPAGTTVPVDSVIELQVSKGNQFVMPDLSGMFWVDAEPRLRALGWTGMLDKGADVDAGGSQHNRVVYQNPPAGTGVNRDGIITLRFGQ

One may read the Ki as the dissociation constant of the complex between target and ligand, obtained from inhibition or displacement. On to `C#Cc1cnc(-c2ccc(C(C)(C)O)s2)nc1Nc1cc(C2CC2)[nH]n1` [Compound 180, 2-(5-(4-(5-Cyclopropyl-1H-pyrazol-3-ylamino)-5-ethynylpyrimidin-2-yl)thiophen-2-yl)propan-2-ol], for which the Ki in assay [1] fell in the range of 10 to 50 nM. In assay [2], the MIC values entry was “B++”.

In the case of `CCOC(=O)C(O)c1ccc(-c2ncc(Cl)c(Nc3cc(C4CC4)[nH]n3)n2)s1` (stereo not drawn) [Compound 191, Ethyl 2-(5-(5-chloro-4-(5-cyclopropyl-1H-pyrazol-3-ylamino)pyrimidin-2-yl)thiophen-2-yl)-2-hydroxyacetate], the “Ki Values” in assay [1] was “A*, B**”. Moreover, the MIC values result in assay [2] was “B, C”.

As for `C#Cc1cnc(-c2ccc(S(=O)(=O)NC(C)=O)s2)nc1Nc1cc(C2CC2)[nH]n1` [Compound 192, N-(5-(4-(5-cyclopropyl-1H-pyrazol-3-ylamino)-5-ethynylpyrimidin-2-yl)thiophen-2-ylsulfonyl)acetamide], in assay [1], the inhibitory constant (Ki) fell in the range of 100 to 500 nM. Moreover, in assay [2], the MIC values entry is listed as “B, C”.

On to `CC(C)(C)OC(=O)/N=C(\N)c1ccc(-c2ncc(Cl)c(Nc3cc(C4CC4)[nH]n3)n2)s1` [Compound 197, tert-butyl [[amino-[5-[5-chloro-4-[(5-cyclopropyl-1H-pyrazol-3-yl)amino]-pyrimidin-2-yl]-2-thienyl]-methylene]amino]formate], for which the Ki in assay [1] fell in the range of 500 to 1000 nM. The MIC values entry in assay [2] is given as “B+”.

For the compound `C#Cc1cnc(-c2ccc([C@H](C)O)s2)nc1Nc1cc(C2CC2)n[nH]1` [Compound 198, (S)-1-(5-(4-(3-cyclopropyl-1H-pyrazol-5-ylamino)-5-ethynylpyrimidin-2-yl)thiophen-2-yl)ethanol], in assay [1], the Ki fell in the range of 1 to 10 nM. Also, in assay [2], the MIC values entry was “A, A, A, B++”.

As to `C#Cc1cnc(N2CCCC2C(=O)OC)nc1Nc1cc(C2CC2)n[nH]1` (stereo not drawn) [Compound 200, methyl 1-[4-[(5-cyclopropyl-2H-pyrazol-3-yl)amino]-5-ethynyl-pyrimidin-2-yl]pyrrolidine-2-carboxylate], the “Ki Values” in assay [1] is “B, D, D”. The MIC values result in assay [2] was “B, C”.

With `O=[N+]([O-])c1ccc(-c2ncc(Cl)c(Nc3cc(C4CC4)[nH]n3)n2)s1` [Compound 203, 5-Chloro-N-(5-cyclopropyl-1H-pyrazol-3-yl)-2-(5-nitrothiophen-2-yl)pyrimidin-4-amine], the Ki in assay [1] lay in the range of 1 to 10 nM. In assay [2], the MIC values entry is “A+, A”.

Regarding `O=[N+]([O-])c1csc(-c2ncc(Cl)c(Nc3cc(C4CC4)[nH]n3)n2)c1` [Compound 204, 5-chloro-N-(5-cyclopropyl-1H-pyrazol-3-yl)-2-(4-nitrothiophen-2-yl)pyrimidin-4-amine], in assay [1], the Ki was 10 to 50 nM. Also, the MIC values result in assay [2] is listed as “B+”.

Regarding `[H]/N=C(\N)c1ccc(-c2ncc(Cl)c(Nc3cc(C4CC4)[nH]n3)n2)s1` [Compound 205, 5-(5-chloro-4-(5-cyclopropyl-1H-pyrazol-3-ylamino)pyrimidin-2-yl)thiophene-2-carboximidamide], in assay [1], the “Ki Values” is given as “A, B**”. Further, the MIC values entry in assay [2] is given as “B, C”.

As for `C#Cc1cnc(-c2ccc([C@@H](C)O)s2)nc1Nc1cc(C2CC2)n[nH]1` [Compound 212, (R)-1-(5-(4-(3-cyclopropyl-1H-pyrazol-5-ylamino)-5-ethynylpyrimidin-2-yl)thiophen-2-yl)ethanol], the “Ki Values” in assay [1] was “A**, A**, A*”. The MIC values entry in assay [2] is listed as “A, B++”.

Take `C#Cc1cnc(-c2ccc([C@H](O)C(C)C)s2)nc1Nc1cc(C2CC2)n[nH]1` [Compound 214, 1-[5-[4-[(5-cyclopropyl-2H-pyrazol-3-yl)amino]-5-ethynyl-pyrimidin-2-yl]-2-thienyl]-2-methyl-propan-1-ol]: in assay [1], the “Ki Values” is “A**, A**, A*”. For the same compound, in assay [2], the MIC values result is “B++”.

Consider `C#Cc1cnc(-c2ccc([C@H](O)CCC)s2)nc1Nc1cc(C2CC2)n[nH]1` [Compound 215, 1-[5-[4-[(5-cyclopropyl-2H-pyrazol-3-yl)amino]-5-ethynyl-pyrimidin-2-yl]-2-thienyl]butan-1-ol], for which the “Ki Values” in assay [1] is “A**, A**, A*”. Moreover, the MIC values result in assay [2] is given as “B++”.
